Where two headings read alike, the source gives them in different places.
Key:
[1] = tested on: pylorous ligated rats; assay: Antisecretory activity in the pylorous ligated rat model; format: in vivo, male Sprague-Dawley rats; conditions: for inhibition in vivo at 6.3 mg/kg / inhibition in vivo at 12.5 mg/kg / inhibition in vivo at 25 mg/kg / inhibition in vivo at 50 mg/kg / inhibition in vivo at 100 mg/kg: Rattus norvegicus, 4 h; for inhibition in vivo at 6.3 mg/kg: oral dose 6.3 mg/kg
Method: To determine the antisecretory activity of the present compounds, the compounds were tested for such activity in pylorous ligated rats. In this test, male Sprague-Dawley rats weighing 170-190 g. were fasted for 24 hours. Water was allowed ad libitum. All groups were comprised of six rats. […] Water was withheld after drug administration. Ligation of the pyrloric sphincter was performed under ether anesthesia, and four hours after ligation the animals were sacrificed with CO2. The stomach was dissected out and the contents were expelled into a graduated centrifuge tube. The samples were centrifuged and the volume, less debris, was measured. Sample aliquots were titrated with 0.05 N NaOH to determine acid concentration. Pepsin activity was determined on an auto analyzer using hemoglobin as the substrate by the method of Anson. Group means for volume, acid and pepsin concentrations, and pepsin outputs were compared for statistically significant differences from control means by Student's t-test.

[2] = tested on: pentagastrin stimulated fistula dog; assay: Antisecretory activity in the pentagastrin stimulated fistula dog; format: in vivo, female beagle dogs; conditions: pentagastrin 10 μg/kg s.c., 2 hours
Method: In addition to the test described in Example XXXVI, some of the present compounds were tested in dogs.
In this test, female beagle dogs weighing 5.5-7.5 kg. were surgically provided with gastric fistulas at the ventral wall of the stomach near the greater curvature and just proximal to the antrum. The animals were allowed to recover for three to four weeks before handling and training were begun, and experiments were started six to eight weeks after surgery. The individually housed dogs were fasted for 20-24 hours before use. Water was allowed ad lib. Treatment selection was determined by a randomized schedule which included control groups given vehicle (0.5% Methocel® solution) only. During the test period each dog was secured in a standing position with one collar around the neck and another around the lower abdomen. Before drug administration, the cannula plug of the gastric fistula was removed and the pH of the gastric juice was checked. Animals with acidic gastric juice (pH 4.0 or less) were replaced with alternate dogs. Then the drug was administered intragastrically […] through a special gastric cannula instillation plug, 30 minutes prior to subcutaneous administration of a gastric stimulant (pentagastrin, 10 μg/kg).
For each dog, collection of gastric juice was begun immediately after administration of the gastric stimulant and continued for two hours. The volumes of collected gastric juices were measured. The acid concentration and pepsin activity were determined for all samples by automated procedures. For the dog data, as recorded in Table 2, below, group means for volume (ml), acid concentration (acidity, mEq/l), pepsin concentration (mg/ml), acid output (mEq/2 hr), and pepsin output (mg/2 hr) were compared with the respective control means using Student's t-test. The results were also expressed as percent inhibition of the respective individual mean control values.
Group means for volume, acid and pepsin concentrations, acid and pepsin outputs were compared for statistically significant differences from control means by Student's t-test.

[3] = oral dose 50 mg/kg, negative sign means stimulated

“2-(1,2,3,4-Tetrahydro-4-pyridyl)-3-methoxy-5-(1,2-dimethylheptyl)phenol hydrochloride [XXVIII]” was tested, and the “Percent inhibition of acid output” value ([1]; oral dose 12.5 mg/kg) was 7.5%, the “Percent inhibition of acidity” value ([1]; oral dose 12.5 mg/kg) was 19.2% and the “Percent inhibition of pepsin output” value ([1]; oral dose 12.5 mg/kg) was 10.9%. For the same compound, the “Percent inhibition of volume” value ([1]; oral dose 12.5 mg/kg) was -14.5%, the “Percent inhibition of pepsin” value ([1]; oral dose 12.5 mg/kg, negative sign means stimulated) was 22.5% and the “Percent inhibition of acid output” value ([1]; oral dose 25 mg/kg) was 13.1%. For the same compound, the “Percent inhibition of acidity” value ([1]; oral dose 25 mg/kg) was 27.2%, the “Percent inhibition of pepsin output” value ([1]; oral dose 25 mg/kg) was 0.8% and the “Percent inhibition of volume” value ([1]; oral dose 25 mg/kg) was -19.5%. For the same compound, the “Percent inhibition of pepsin” value ([1]; oral dose 25 mg/kg, negative sign means stimulated) was 17.2%, the “Percent inhibition of acid output” value ([1]; oral dose 50 mg/kg) was 68.2% and the “Percent inhibition of acidity” value ([1]; oral dose 50 mg/kg) was 67.1%. For the same compound, the “Percent inhibition of volume” value ([1]; oral dose 50 mg/kg) was 3.7%, the “Percent inhibition of pepsin” value [1, 3] was 7.5% and the “Percent inhibition of pepsin output” value [1, 3] was 9.1%. The “Percent inhibition of acid output” value ([1]; oral dose 100 mg/kg) was 64.4%, the “Percent inhibition of acidity” value ([1]; oral dose 100 mg/kg) was 71.7% and the “Percent inhibition of pepsin output” value ([1]; oral dose 100 mg/kg) was 1.8%. The “Percent inhibition of volume” value ([1]; oral dose 100 mg/kg) was -23.1%, the “Percent inhibition of pepsin” value ([1]; oral dose 100 mg/kg, negative sign means stimulated) was 20.9% and the “% Inhibition of acid output” value ([2]; dose 10 mg/kg) was 16.5%. The “% Inhibition of acidity” value ([2]; dose 10 mg/kg) was 7.7%, the “% Inhibition of pepsin” value ([2]; dose 10 mg/kg) was 29.7% and the “% Inhibition of pepsin output” value ([2]; dose 10 mg/kg) was 35.1%. The “% Inhibition of volume” value ([2]; dose 10 mg/kg) was 9.2%, the “% Inhibition of acid output” value ([2]; dose 20 mg/kg) was 17.9% and the “% Inhibition of acidity” value ([2]; dose 20 mg/kg) was 26.2%. The “% Inhibition of pepsin” value ([2]; dose 20 mg/kg) was 48.0%, the “% Inhibition of pepsin output” value ([2]; dose 20 mg/kg) was 41.2% and the “% Inhibition of volume” value ([2]; dose 20 mg/kg) was -12.6%.
In the case of `CC(C)c1cc(O)c(C2=CCN(C)CC2)c(O)c1.Cl` [Example VI, 2-(N-Methyl-1,2,3,6-tetrahydro-4-pyridyl)-5-isopropyl resorcinol hydrochloride], the inhibition in vivo at 6.3 mg/kg ([1]; negative sign means stimulated, read-out: Percent inhibition of pepsin) is reported as -13.6%, the inhibition in vivo at 6.3 mg/kg ([1]; read-out: Percent inhibition of acid output) is reported as 23.4% and the inhibition in vivo at 6.3 mg/kg ([1]; read-out: Percent inhibition of acidity) is reported as 7%. It also gave an inhibition in vivo at 6.3 mg/kg ([1]; read-out: Percent inhibition of pepsin output) of 7%, an inhibition in vivo at 6.3 mg/kg ([1]; read-out: Percent inhibition of volume) of 18.9% and an inhibition in vivo at 12.5 mg/kg ([1]; oral dose 12.5 mg/kg, negative sign means stimulated, read-out: Percent inhibition of pepsin) of -25.3%. It also gave an inhibition in vivo at 12.5 mg/kg ([1]; oral dose 12.5 mg/kg, read-out: Percent inhibition of acid output) of 59.4%, an inhibition in vivo at 12.5 mg/kg ([1]; oral dose 12.5 mg/kg, read-out: Percent inhibition of acidity) of 21.6% and an inhibition in vivo at 12.5 mg/kg ([1]; oral dose 12.5 mg/kg, read-out: Percent inhibition of pepsin output) of 41.2%. The inhibition in vivo at 12.5 mg/kg ([1]; oral dose 12.5 mg/kg, read-out: Percent inhibition of volume) was 49.8%, the inhibition in vivo at 25 mg/kg ([1]; oral dose 25 mg/kg, negative sign means stimulated, read-out: Percent inhibition of pepsin) was -22.3% and the inhibition in vivo at 25 mg/kg ([1]; oral dose 25 mg/kg, read-out: Percent inhibition of acid output) was 80.9%. For the same compound, the inhibition in vivo at 25 mg/kg ([1]; oral dose 25 mg/kg, read-out: Percent inhibition of acidity) was 49.9%, the inhibition in vivo at 25 mg/kg ([1]; oral dose 25 mg/kg, read-out: Percent inhibition of pepsin output) was 60.2% and the inhibition in vivo at 25 mg/kg ([1]; oral dose 25 mg/kg, read-out: Percent inhibition of volume) was 66.1%. It also gave an inhibition in vivo at 50 mg/kg ([1]; oral dose 50 mg/kg, negative sign means stimulated, read-out: Percent inhibition of pepsin) of -38.6%, an inhibition in vivo at 50 mg/kg ([1]; oral dose 50 mg/kg, negative sign means stimulated, read-out: Percent inhibition of pepsin output) of 54.7% and an inhibition in vivo at 50 mg/kg ([1]; oral dose 50 mg/kg, read-out: Percent inhibition of acid output) of 84.4%. It also gave an inhibition in vivo at 50 mg/kg ([1]; oral dose 50 mg/kg, read-out: Percent inhibition of acidity) of 51.7%, an inhibition in vivo at 50 mg/kg ([1]; oral dose 50 mg/kg, read-out: Percent inhibition of volume) of 67.3% and an inhibition in vivo at 100 mg/kg ([1]; oral dose 100 mg/kg, negative sign means stimulated, read-out: Percent inhibition of pepsin) of -48.8%. The inhibition in vivo at 100 mg/kg ([1]; oral dose 100 mg/kg, read-out: Percent inhibition of acid output) was 87.7%, the inhibition in vivo at 100 mg/kg ([1]; oral dose 100 mg/kg, read-out: Percent inhibition of acidity) was 62.1% and the inhibition in vivo at 100 mg/kg ([1]; oral dose 100 mg/kg, read-out: Percent inhibition of pepsin output) was 53.3%. For the same compound, the inhibition in vivo at 100 mg/kg ([1]; oral dose 100 mg/kg, read-out: Percent inhibition of volume) was 67.5%, the “% Inhibition of acid output” value ([2]; dose 20 mg/kg) was 26.6% and the “% Inhibition of acidity” value ([2]; dose 20 mg/kg) was 36.6%. For the same compound, the “% Inhibition of pepsin” value ([2]; dose 20 mg/kg) was 62.7%, the “% Inhibition of pepsin output” value ([2]; dose 20 mg/kg) was 57.1% and the “% Inhibition of volume” value ([2]; dose 20 mg/kg) was -17.6%.

From patent publication US4180669A, “2-(N-phenethyl-4-piperidino)-5-pentyl resorcinol” (Abbott Laboratories, priority 1978, dated 1979)
